Measurements as given in patent publication US10520488B2, “Method and measuring device for determination of the growth rate of biofilm” (Helmholtz-Zentrum fuer Infektionsforschung GmbH, priority 2014, dated 2019).

How the values were obtained:
Type in all cases: cell-based, Pseudomonas aeruginosa
PA14 biofilms [1] = experiment: Crystal violet analysis of PA14 biofilms, absorption at 620 nm; conditions: added to wild type WT PA14, LB medium, 96-Well-Plate, after 43 hours, compared to WT alone
Protocol: FIG. 5—Diagram of PA 14 biofilms determined after 43 hours with crystal violet by monitoring absorption at 620 nm;
FIG. 5 is a diagram of various types of PA14 biofilms measured by use of the 96-Well-Plate after 43 hours by use of the fluid culture medium LB with crystal violet analysis by monitoring absorption at 620 nm.

PA14 biofilms [2] = experiment: Impedance analysis (xCELLigence cell index) of PA14 biofilm growth rate / biofilm formation
Protocol: The biomass Pseudomonas aeruginosa had been measured as an exemplary biomass. Eventually also other strains can be analyzed. The 96 E-Plate had been used for a measuring time of 43 hours. The fluid culture medium LB had been introduced into the receptacles together with wild type (WT) PA14, ΔpelA deletion mutant or ΔpqsA, respectively.
A significant linear reduction of the negative cell index occurs after about 35 hours and more preferably in the time frame of the 37 hours to 42 hours. Within this time frame of 37 hours to 42 hours, the directional cell index RK=(cell index[t2]−cell index[t1])/(t2−t1) is decreasing. Thus, for such a short time frame, the value of the cell index change provides the directional cell index RK, which corresponds to the linear relation between the capacitance and the reactance having the general form of a straight line. Optionally, and in particular in case of evaluating longer time frames, the growth rate of biofilm can be calculated as function of the natural logarithm of the cell index, e.g. by the formula RK=ln(cell index[t2]−cell index[t1])/(t2−t1).
The impedance method has also been used to study the effect of antibiotics on biofilm formation of P. aeruginosa PA14. The results of the impact of ciprofloxacin (A), tobramycin (B), and meropenem (C) on biofilm formation of PA14 are shown in FIGS. 8 to 10. As examples, the antibiotics ciprofloxacin (FIGS. 8a)-c)), tobramycin (FIGS. 9a)-c)) and meropenem (FIGS. 10a)-c)) have been tested. All three antibiotics changed the impedance curves in a concentration-dependent manner, indicating effects on biofilm formation.
The effect on impedance was quantified by three parameters at varying antibiotic concentrations:
The first parameter is the time of onset of a linear decrease of the cell index, (FIGS. 8a), 9a) and 10a)).
The second parameter is the duration of a linear decrease of the cell index. This duration was determined by a linear trendline that was fitted to the data with an r^2 value of 0.97 or higher. In the graphs of FIGS. 8a), 9a) and 10a), the black vertical bars represent the time period over which the biofilm formation rate was measured to be steady, based on a straight line assigned with an r^2 of at least 0.97 (n=3 or 4).
The third parameter was the cell index slope during that time period (FIGS. 8b), 9b) and 10b)). These graphs show the concentration dependency of the biofilm formation expressed in the slope/h of the cell index (n=3 or 4).

PA14 = experiment: Planktonic growth curves of PA14 by OD600 (control experiment)
Description: OD600 indicates the absorbance, or optical density, of a sample measured at a wavelength of 600 nm and indicates the concentration of cells in a liquid.

**Q.** N=C(N)NCCC[C@H](N)C(=O)O [L-Arg, arginine] was tested. Which “growth of biofilm (crystal violet)” value (PA14 biofilms [1]) did it give?
**A.** Its value is “inhibits the growth of biofilm”.

**Q.** What about the “directional cell index RK” value (PA14 biofilms [2]; 0.4% or 0.8% L-Arg added to wild type WT, evaluation time 37 to 42 hours) of the same compound?
**A.** The value was “about −0.004 /h”.

**Q.** And the “reduction of the biofilm growth rate” value (PA14 biofilms [2]; 0.4% or 0.8% L-Arg, PA14 WT, LB, evaluation time 37 to 42 hours)?
**A.** The value was “about ½”.

**Q.** Which results are given for O=C(O)c1cn(C2CC2)c2cc(N3CCNCC3)c(F)cc2c1=O [ciprofloxacin]?
**A.** impedance curve reflecting biofilm formation (PA14 biofilms [2]; 0.13 μg/mL): clearly changed the impedance curve; steady biofilm formation (PA14 biofilms [2]; 0.25 μg/mL): not observed anymore; cell index slope (biofilm formation) (PA14 biofilms [2]; at increasing concentrations): shallower decline; planktonic growth (PA14; 0.13 μg/mL): not impaired; planktonic growth (PA14; 0.25 μg/mL): still possible

**Q.** Which “induction of biofilm formation (cell index slope)” value (PA14 biofilms [2]; 0.5 μg/ml) does the source give for C[C@@H](O)[C@H]1C(=O)N2C(C(=O)O)=C(S[C@@H]3CN[C@H](C(=O)N(C)C)C3)[C@H](C)[C@H]12 [meropenem] here?
**A.** The value was “this effect vanished”.

**Q.** What about the “cell index slope (biofilm formation)” value (PA14 biofilms [2]; concentrations between 0.063 and 0.25 μg/ml) of the same compound?
**A.** Its value is “induced biofilm formation”.

**Q.** NC[C@H]1O[C@H](O[C@H]2[C@H](O)[C@@H](O[C@H]3O[C@H](CO)[C@@H](O)[C@H](N)[C@H]3O)[C@H](N)C[C@@H]2N)[C@H](N)C[C@@H]1O [tobramycin] was tested. Which “cell index slope (biofilm formation)” value (PA14 biofilms [2]; at increasing concentrations) did it give?
**A.** Its value is “shallower decline”.
